Consider 15 compounds from paper PMC8126241, “Active Components from Cassia abbreviata Prevent HIV-1 Entry by Distinct Mechanisms of Action” (International Journal of Molecular Sciences, 2021).

Read-outs that look alike come from different tables or passages of the source.

The test system of data set [1] is HIV-1 fusion. The data set is described as follows: Fusion assay, HeLa-ENV-Lai with HeLa-P4-CXCR4-LTRLacZ cells. The class given is cell-based. To be noted: Figure 8A. The protocol: Fusion inhibition was evaluated as previously described. Briefly, HeLa-ENV-Lai cells were pre-incubated with or without drugs for 2 h and added to HeLa-P4-CXCR4-LTRLacZ cells which were placed in a 96-well plate 1 day before. After 24 h, cells were washed with PBS and then incubated with 50 μL containing 0.5% NP-40 (Sigma, Belgium) for 15 min at room temperature. Fifty microliters chlorophenol red-β-D-galactopyranoside (CPRG) reagent (Roche, Sigma-Aldrich, Liège, Belgium) was then added into the plate. After 30 min incubation at room temperature in dark, β−galactosidase was assessed by measuring OD562 of the cells via POLARstar Omega plate reader (BMG Labtech, Ortenberg, Germany).

The test system of data set [2] is HIV-1 gp120 / CD4 binding. The data set is described as follows: CD4-gp120 interaction assay (ELISA). To be noted: in-house ELISA. The protocol:
Human soluble CD4 (sCD4) was immobilized in a 96-well plate by adding 100 ng sCD4 (R&D Systems, Belgium) in 100 μL PBS per well and incubated at 4 °C. After 24 h, the CD4 coated plate was washed with 1% BSA-PBS and blocked by adding 100μL 5% BSA-PBS per well for 1 h at 4 °C. The coated plate was then washed and incubated with or without drugs for 1 h at 4 °C. After washing, 100 ng HIV-1 gp120 protein (Fitzgerald, Acton, MA, USA) was added into the plate and kept for 1 h at 4 °C. The plate was washed, and anti-HIV-1 gp120 (Aalto Bio Reagents, Dublin, Ireland) (100 ng/100 μL PBS) was added. After 1 h, the plate was washed and anti-sheep HRP (Sigma, Belgium) (100 ng/100 μL PBS) was added. After 1 h incubation at 4 °C, 100 μL o-phenylenediamine dihydrochloride (OPD) (Thermo Fisher, Asse, Belgium) was added and incubated for 20 min in dark. One hundred microliters 0.5M H2SO4 was finally added to stop the reaction. OD492 and OD630 were measured by POLARstart Omega Plate Reader. OD492 − OD630 was calculated.
Background: An ELISA detects its analyte on a solid surface through an enzyme-linked reagent.

For data set [3], the system named is pseudotype virus pNL4.3ΔEnvLuc-HXB2. The data set is described as follows: microbe, parasite or virus in culture. Conditions: Human immunodeficiency virus 1, HXB2, read-out: IC50 HIV-1 entry.
In data set [4] the test system is HIV-1. Put plainly: microbe, parasite or virus in culture. The class given is cell-based. Conditions: for Anti-HIV activity: piceatannol analogues, pseudotype and MTT assay; for IC50: Human immunodeficiency virus 1, read-out: IC50 anti-HIV-1 activity. From the text:
(§1) Since molecular details of piceatannol interaction with its target(s) are currently not available, we performed a structure-activity relationship (SAR) study with the aim to understand the chemical and pharmacophoric features of piceatannol that are relevant for its anti-HIV activity. Seventeen chemical analogues of piceatannol (molecules 1–17, Figure 6) were designed and retrieved from commercial vendors and from an in-house library of natural products and their derivatives and tested in vitro against HIV-1 entry and HIV-1 infection using the pseudotype and the MTT assay, respectively. […] Besides, the two flavones hispidulin 14 and norartocarpetin 15, and the two styrene derivatives 16 and methyl ferulate 17 were tested.
On the technique in general: Formazan colour is commonly taken as a measure of viable cells.

Data set [5] has as its system HIV-1 IIIB. To be noted: read-out: IC50 IIIB; PBMCs, 7 days, P24 ELISA.
Data set [6] has as its system HIV-1 ADA-M. To be noted: read-out: IC50 ADA-M; PBMCs, 7 days, P24 ELISA.
Data set [7] deals with non-B HIV-1 primary clinical isolate #1. Conditions: non-B primary clinical isolate #1, 2 h.
Data set [8] deals with non-B HIV-1 primary clinical isolate #2. To be noted: non-B primary clinical isolate #2, 2 h.
Data set [9] relates to HIV-1 IIIB. Put plainly: microbe, parasite or virus in culture. To be noted: Human immunodeficiency virus 1, IIIB, PBMC, 168 h, read-out: IC50 IIIB.
The test system of data set [10] is HIV-1 ADA-M. The data set is described as follows: microbe, parasite or virus in culture. Conditions: Human immunodeficiency virus 1, PBMC, 168 h, read-out: IC50 ADA-M.
In data set [11] the test system is non-B HIV-1 primary clinical isolate #1. Put plainly: microbe, parasite or virus in culture. To be noted: Human immunodeficiency virus 1, PBMC, 168 h, read-out: IC50 Clinical isolate #1.
The test system of data set [12] is non-B HIV-1 primary clinical isolate #2. The data set is described as follows: microbe, parasite or virus in culture. To be noted: Human immunodeficiency virus 1, PBMC, 168 h, read-out: IC50 Clinical isolate #2.
Data set [13] in a line: Cytotoxicity of piceatannol analogues.
From the text: as §1

Data set [14] addresses T1, CCR5 (Homo sapiens, UniProt P51681).
T1 construct: host or cells: U373-CD4-CCR5 cells
The data set is described as follows: Binding competition with anti-CCR5 antibody 2D7. Conditions: anti-CCR5 antibody 2D7, U373-CD4-CCR5 cells. How it is done: Binding competition between increasing concentrations of compounds and FITC-conjugated mouse anti-human CD4 clone RPA-4 (Biolegend, Amsterdam, Netherlands), PE-conjugated mouse anti-Human CXCR4 clone 12G5, and PE-conjugated mouse anti-human CCR5 clone 2D7 (BD Pharma, Aalst, Belgium) to U373-CD4-CXCR4 and U373-CD4-CCR5 cells was first tested by flow cytometry (FACSCanto). […] After 1 h of incubation at 4 °C, cells were washed with FACS buffer (1% bovine serum albumin, 0.1% N3Na in PBS, Sigma), and Mean Fluorescence Intensity (MFI) was measured. […] Internalization was stopped after 30 min by addition of NaN3 (0.1%) on ice. Cells were stained with anti-human CXCR4 clone 4G10 (BD, Belgium) or anti-human CCR5 (CD195) clone T21/8, (eBioscience, Asse, Belgium), Near-IR fluorescent reactive dye during 1 h at 4 °C, washed with FACS buffer, and a secondary PE-conjugated goat anti-mouse antibody (Jackson ImmunoResearch, West Grove, PA, USA).

Data set [15] deals with pseudotype virus pNL4.3ΔEnvLuc-HXB2. To be noted: multi-dosing time assay, 2 h after spinoculation (post-infection).

T1 sequence (P51681 whole entry): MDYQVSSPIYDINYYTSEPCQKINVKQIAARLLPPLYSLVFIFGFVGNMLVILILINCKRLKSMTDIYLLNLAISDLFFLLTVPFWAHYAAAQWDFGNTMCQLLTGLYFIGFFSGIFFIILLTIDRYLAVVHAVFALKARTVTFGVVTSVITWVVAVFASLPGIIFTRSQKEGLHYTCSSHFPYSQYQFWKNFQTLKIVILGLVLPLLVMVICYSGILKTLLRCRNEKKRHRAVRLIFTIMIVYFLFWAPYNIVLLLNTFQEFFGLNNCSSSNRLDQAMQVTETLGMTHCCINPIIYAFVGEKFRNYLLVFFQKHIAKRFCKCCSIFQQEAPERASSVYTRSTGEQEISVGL

`C[C@@]12OC(=O)C[C@@H]1[C@H]1Oc3c(c(O)cc(O)c3[C@@H]3c4ccc(O)cc4O[C@H](c4ccc(O)cc4)[C@H]3O)C[C@H]1O2` [cassiabrevone]: the “Inhibition of viral fusion” value in data set [1] is recorded as “inhibited viral fusion similarly to CE”. Moreover, in data set [2], the “Inhibition of gp120/CD4 binding” value is reported as “inhibited significantly gp120/CD4 binding activity in a dose-dependent manner”. Besides, the IC50 (commonly the midpoint of a concentration-inhibition curve) in [3] was found to be 31000 nM.
As to `Oc1ccc([C@H]2Oc3cc(O)ccc3[C@@H](c3c(O)cc(O)c4c3O[C@H](c3ccc(O)cc3)[C@H](O)C4)[C@@H]2O)cc1` [guibourtinidol-(4α→8)-epiafzelechin], in data set [1], the “Inhibition of viral fusion” value is listed as “inhibited viral fusion similarly to CE”. Further, the “Inhibition of gp120/CD4 binding” value in [2] was “not guibourtinidol-(4α→8)-epiafzelechin”. In addition, the IC50 in data set [3] came to 42500 nM.
For the compound `COc1cc(/C=C/c2ccc(O)cc2)cc(OC)c1` [Compound 1], in [4], the Anti-HIV activity result is “inactive”.
Still for that read-out and setting: the result for `CC(C)=CCc1c(O)cc(O)c(CC=C(C)C)c1/C=C/c1ccccc1` [Compound 12] reads “inactive”.
Turning to enfuvirtide, the IC50 in [5] was found to be 0.64 nM; in data set [6], 0.67 nM; in data set [7] it was 8.25 nM; in data set [8], 1.93 nM.
In the case of `CCCCCCCCCCCCCCCC(=O)O` [palmitic acid], the IC50 in [3] was determined as 87500 ± 16100 nM.
In the case of `O=C1Nc2ccc(Cl)cc2[C@@](C#CC2CC2)(C(F)(F)F)O1` [EFV, efavirenz], the half-inhibitory concentration (IC50) was 0.1 nM in data set [9], 0.17 nM in [10], over 10 nM in data set [11] and over 10 nM in data set [12].
In the case of `CC(=O)Oc1ccc(/C=C/c2cc(OC(C)=O)cc(OC(C)=O)c2)cc1` [Compound 2], the Anti-HIV activity entry in data set [4] was “inactive”.
Regarding `O=c1cc(-c2ccc(O)cc2O)oc2cc(O)cc(O)c12` [Compound 15, norartocarpetin], the IC50 in data set [4] was 39000 ± 5000 nM. The CC50 (usually the concentration at which the toxic effect on the cells reaches its halfway point) in [13] was over 500000 nM.
Regarding `CC1(C)CC[C@]2(C(=O)O)CC[C@]3(C)C(=CC[C@@H]4[C@@]5(C)CC[C@H](O)C(C)(C)[C@@H]5CC[C@]43C)[C@@H]2C1` [oleanolic acid], the IC50 in data set [3] turned out to be 34900 ± 9090 nM.
On the same count and under the same terms, the value for `O=C1c2c(O)cc(O)cc2OC(c2ccc(O)c(O)c2)C1O` (centres unmarked) [taxifolin] was 240000 ± 3000 nM.
Consider “CCL5: chemokine C-C motif chemokine ligand 5, positive control for binding CCR5”, for which the “Inhibition of CCR5 binding” value in data set [14] was “inhibited”.
On to `COC(=O)/C=C/c1ccc(O)c(OC)c1` [Compound 17, methyl ferulate], for which the IC50 in [4] was found to be 600000 ± 22000 nM.
On to `Cc1nnc(C(=O)NC(C)(C)c2nc(C(=O)NCc3ccc(F)cc3)c(O)c(=O)n2C)o1` [raltegravir, reference compound], for which the “Inhibitory effect when added after infection” value in [15] was “inhibited HIV-1 infection”.
`Cc1cn([C@H]2C[C@H](N=[N+]=[N-])[C@@H](CO)O2)c(=O)[nH]c1=O` [AZT, azidothymidine]: the IC50 was 7.07 nM in data set [9], 7.31 nM in [10], 6.7 nM in data set [11] and over 1000 nM in data set [12].
